Experiment in all cases: Tumor cell proliferation inhibitory activity test in vitro (MTT)
The subject of experiment [1] is breast cancer cell MCF-7. Format: cell-based. To be noted: read-out: IC50 of compounds for tumor cells, Activity, MCF-7. An excerpt: (§1) Human non-small cell lung cancer cell line NCI-H460, human small cell lung cancer cell line NCI-H446, human hepatocellular carcinoma cell strain HepG2, human colon carcinoma cell strain HCT116, human prostate cancer PC-3, human melanoma A375, colon carcinoma cell HCT-8, breast cancer cell MCF-7, ovarian cancer cell A2780s, drug-resistant ovarian cancer cell A2780/T, drug-resistant colon cancer cell HCT-8/T and doxorubicin-resistant breast cancer cell MCF-7/ADR are obtained from American Type Culture Collection (ATCC) and are cultured and preserved by the cell bank of State Key Laboratory of Biotherapy of Sichuan University. Above tumor cells are routinely cultured in DMEM culture medium containing 10% fetal bovine serum, 100 U·mL-1 penicillin and 100 mg·L−1 streptomycin, and in an incubator at 37° C. and with saturated humidity and 5% CO2 concentration.
(§2) Fill diluted cell suspension in the 96-well plate with 1000-10000 cells per well and incubate it in CO2 incubator overnight.
(§3) Replace with new medium containing various concentrations of compounds to be tested for the test group and replace with fresh medium with equal volume for the control group, each group is arranged with 5 parallel wells and incubated in an incubator at 37° C. and with 5% CO2 concentration.
(§4) Discard the supernatant after 72 hours, add 200 μL freshly prepared serum-free medium containing 0.2 mg/mL MTT into each well, continue to incubate at 37° C. for 1-4 hours, then stop incubation, carefully remove the culture supernatant in the wells and add 200 uL DMSO (dimethyl sulfoxide), oscillate with a miniature ultrasonic oscillator for 15-20 minutes to make the crystal fully dissolved and mixed. Determine OD values using a microplate reader at 570 nm with a reference wavelength of 450 nm.
(§5) Draw curves based on the growth inhibition rate for tumor cells of the same sample with different concentrations to get dose-response curve, so as to calculate IC50. Repeat each test for 3 times, measure IC50 (μM) or nanomolor concentration (nM) of compounds in different tumor cells.

For experiment [2], the system named is prostate cancer PC-3. Format: cell-based, human. To be noted: 72 hours, read-out: IC50 of compounds for tumor cells, Activity, PC-3.
Source text: as §1, §2, §3, §4, §5

Experiment [3] deals with non-small cell lung cancer cell line NCI-H460. In kind it is cell-based, human. To be noted: read-out: IC50 of compounds for tumor cells, Activity, H460.
Source text: as §1, §2, §3, §4, §5

Experiment [4] relates to hepatocellular carcinoma cell HEPG2. In kind it is cell-based, human. To be noted: read-out: IC50 of compounds for tumor cells, Activity, HEPG2.
Source text: as §1, §2, §3, §4, §5

For experiment [5], the system named is colon carcinoma cell HCT116. Format: cell-based, human. To be noted: read-out: IC50 of compounds for tumor cells, Activity, HCT116.
Source text: as §1, §2, §3, §4, §5

In experiment [6] the test system is melanoma A375. Format: cell-based, human. To be noted: read-out: IC50 of compounds for tumor cells, Activity, A375.
Source text: as §1, §2, §3, §4, §5

[7] abbreviates: Homo sapiens, NCI-H460, 72 hours.
Setting [8] is: Homo sapiens, HCT-116, 72 hours.

Where two headings read alike, the source gives them in different places.

For “4-(N-methyl-N-(4-methoxy-3-(2-methylphenyl-methoxycarbonyl)-benzene)-amino) Coumarin [COUM-63]”, the IC50 in experiment [1] (72 hours), in experiment [2], in experiment [3] (72 hours), in experiment [4] (72 hours), in experiment [5] (72 hours) and in experiment [6] (72 hours) was 0.1 to 5 µM in each case.

For the compound “4-(N-methyl-N-(4-methoxy-3-(2-pyrrole ethoxy)-benzene)-amino) Coumarin [COUM-52]”, the IC50 in experiment [1] (72 hours), in experiment [2], in experiment [3] (72 hours), in experiment [4] (72 hours), in experiment [5] (72 hours) and in experiment [6] (72 hours) was 0.1 to 5 µM throughout.

On to “4-(N-methyl-N-(4-methoxy-3-(3-chlorophenyl-methoxycarbonyl)-benzene)-amino) Coumarin [COUM-62]”, for which the IC50 in experiment [1] (72 hours), in experiment [2], in experiment [3] (72 hours), in experiment [4] (72 hours), in experiment [5] (72 hours) and in experiment [6] (72 hours) was 0.1 to 5 µM each time.

As to “4-(N-methyl-N-(4-methoxy-3-(4-fluorobenzene) methanesulfonate-benzene)-amino) Coumarin [COUM-56]”, the concentration for half-maximal inhibition (IC50) in experiment [1] (72 hours), in experiment [2], in experiment [3] (72 hours), in experiment [4] (72 hours), in experiment [5] (72 hours) and in experiment [6] (72 hours) was 0.1 to 5 µM in each case.

For “4-(N-methyl-N-(4-methoxy-3-((4-ethylbenzene) methoxycarbonyl)-benzene)-amino) Coumarin [COUM-53]”, the IC50 in experiment [1] (72 hours), in experiment [2], in experiment [3] (72 hours), in experiment [4] (72 hours), in experiment [5] (72 hours) and in experiment [6] (72 hours) was 0.1 to 5 µM each time.

Consider “4-(N-methyl-N-(4-methoxy-3-(furan-2-yl-methoxycarbonyl)-benzene)-amino) Coumarin [COUM-61]”, for which the IC50 in experiment [1] (72 hours), in experiment [2], in experiment [3] (72 hours), in experiment [4] (72 hours), in experiment [5] (72 hours) and in experiment [6] (72 hours) was 0.1 to 5 µM each time.

As to `O=c1cc(-c2ccc(-c3cccc(Cl)c3)s2)c2ccccc2o1` [COUM-8, 4-(5-(3-chlorobenzene)thiophene-2-yl)-coumarin], the IC50 in experiment [1] (Homo sapiens, MCF7, 72 hours) was over 5 µM; in experiment [2] (Homo sapiens), over 5 µM; in experiment [3] (setting [7]), over 5 µM; in experiment [4] (Homo sapiens, HepG2, 72 hours) it was over 5 µM; in experiment [5] (setting [8]), over 5 µM; in experiment [6] (Homo sapiens, A-375, 72 hours), over 5 µM.

Consider `COc1ccc2c(-c3ccc(-c4ccc5c(c4)OCO5)s3)cc(=O)oc2c1` [COUM-11, 4-(5-(3,4-(methylenedioxy)benzene)thiophene-2-yl)-7-methoxyl-coumarin], for which the IC50 was over 5 µM in experiment [1] (Homo sapiens, MCF7, 72 hours); over 5 µM in experiment [2] (Homo sapiens); over 5 µM in experiment [3] (setting [7]); over 5 µM in experiment [4] (Homo sapiens, HepG2, 72 hours); over 5 µM in experiment [5] (setting [8]); over 5 µM in experiment [6] (Homo sapiens, A-375, 72 hours).

With `COc1ccc2c(-c3ccc(-c4ccccc4OC)s3)cc(=O)oc2c1` [COUM-12, 4-(5-(2-methoxybenzene)thiophene-2-yl)-7-methoxyl-coumarin], the IC50 in experiment [1] (Homo sapiens, MCF7, 72 hours) is over 5 µM; in experiment [2] (Homo sapiens) it was over 5 µM; in experiment [3] (setting [7]), over 5 µM; in experiment [4] (Homo sapiens, HepG2, 72 hours), over 5 µM; in experiment [5] (setting [8]), over 5 µM; in experiment [6] (Homo sapiens, A-375, 72 hours), over 5 µM.

Turning to `CCOC(=O)c1cccc(-c2ccc(-c3cc(=O)oc4cc(OC)ccc34)s2)c1` [COUM-13, 4-(5-(3-ethoxycarbonylbenzene)thiophene-2-yl)-7-methoxyl-coumarin], the IC50 in experiment [1] (Homo sapiens, MCF7, 72 hours) was over 5 µM; in experiment [2] (Homo sapiens) it was over 5 µM; in experiment [3] (setting [7]) it was over 5 µM; in experiment [4] (Homo sapiens, HepG2, 72 hours), over 5 µM; in experiment [5] (setting [8]), over 5 µM; in experiment [6] (Homo sapiens, A-375, 72 hours), over 5 µM.

Consider `COc1ccc(-c2ccc(-c3cc(=O)oc4ccccc34)o2)cc1` [COUM-15, 4-(5-(4-methoxyphenyl)furan-2-yl)-coumarin], for which the IC50 was over 5 µM in experiment [1] (Homo sapiens, MCF7, 72 hours); over 5 µM in experiment [2] (Homo sapiens); over 5 µM in experiment [3] (setting [7]); over 5 µM in experiment [4] (Homo sapiens, HepG2, 72 hours); over 5 µM in experiment [5] (setting [8]); over 5 µM in experiment [6] (Homo sapiens, A-375, 72 hours).

Consider `CS(=O)(=O)c1ccc(-c2ccc(-c3cc(=O)oc4ccccc34)o2)cc1` [COUM-16, 4-(5-(4-methylsulfonylphenyl)furan-2-yl)-coumarin], for which the IC50 is over 5 µM in experiment [1] (Homo sapiens, MCF7, 72 hours); over 5 µM in experiment [2] (Homo sapiens); over 5 µM in experiment [3] (setting [7]); over 5 µM in experiment [4] (Homo sapiens, HepG2, 72 hours); over 5 µM in experiment [5] (setting [8]); over 5 µM in experiment [6] (Homo sapiens, A-375, 72 hours).

Take `Cc1ccc(-c2ccc(-c3cc(=O)oc4ccccc34)o2)cc1` [COUM-17, 4-(5-(4-methylphenyl)furan-2-yl)-coumarin]: the IC50 in experiment [1] (Homo sapiens, MCF7, 72 hours) is over 5 µM; in experiment [2] (Homo sapiens) it was over 5 µM; in experiment [3] (setting [7]), over 5 µM; in experiment [4] (Homo sapiens, HepG2, 72 hours) it was over 5 µM; in experiment [5] (setting [8]) it was over 5 µM; in experiment [6] (Homo sapiens, A-375, 72 hours) it was over 5 µM.

As to `COc1ccccc1-c1ccc(-c2cc(=O)oc3ccccc23)o1` [COUM-18, 4-(5-(2-methoxyphenyl)furan-2-yl)-coumarin], the IC50 in experiment [1] (Homo sapiens, MCF7, 72 hours) was over 5 µM; in experiment [2] (Homo sapiens) it was over 5 µM; in experiment [3] (setting [7]) it was over 5 µM; in experiment [4] (Homo sapiens, HepG2, 72 hours), over 5 µM; in experiment [5] (setting [8]), over 5 µM; in experiment [6] (Homo sapiens, A-375, 72 hours), over 5 µM.

In the case of `O=c1cc(-c2ccc(-c3ccccc3)o2)c2ccccc2o1` [COUM-19, 4-(5-phenylfuran-2-yl)-coumarin], the IC50 in experiment [1] (Homo sapiens, MCF7, 72 hours) is over 5 µM; in experiment [2] (Homo sapiens), over 5 µM; in experiment [3] (setting [7]), over 5 µM; in experiment [4] (Homo sapiens, HepG2, 72 hours), over 5 µM; in experiment [5] (setting [8]), over 5 µM; in experiment [6] (Homo sapiens, A-375, 72 hours), over 5 µM.

Turning to `COc1cc(-c2ccc(-c3cc(=O)oc4ccccc34)o2)cc(OC)c1OC` [COUM-20, 4-(5-(3,4,5-trimethoxyphenyl)furan-2-yl)-coumarin], the IC50 was over 5 µM in experiment [1] (Homo sapiens, MCF7, 72 hours); over 5 µM in experiment [2] (Homo sapiens); over 5 µM in experiment [3] (setting [7]); over 5 µM in experiment [4] (Homo sapiens, HepG2, 72 hours); over 5 µM in experiment [5] (setting [8]); over 5 µM in experiment [6] (Homo sapiens, A-375, 72 hours).

Consider `O=c1cc(-c2ccc(-c3ccc(Cl)cc3)o2)c2ccccc2o1` [COUM-21, 4-(5-(4-chlorobenzene)furan-2-yl)-coumarin], for which the half-maximal inhibitory concentration (IC50) in experiment [1] (Homo sapiens, MCF7, 72 hours) is over 5 µM; in experiment [2] (Homo sapiens), over 5 µM; in experiment [3] (setting [7]), over 5 µM; in experiment [4] (Homo sapiens, HepG2, 72 hours), over 5 µM; in experiment [5] (setting [8]), over 5 µM; in experiment [6] (Homo sapiens, A-375, 72 hours), over 5 µM.

As to `O=c1cc(-c2ccc(-c3cccc(Cl)c3)o2)c2ccccc2o1` [COUM-22, 4-(5-(3-chlorobenzene)furan-2-yl)-coumarin], the IC50 in experiment [1] (Homo sapiens, MCF7, 72 hours) was over 5 µM; in experiment [2] (Homo sapiens) it was over 5 µM; in experiment [3] (setting [7]), over 5 µM; in experiment [4] (Homo sapiens, HepG2, 72 hours), over 5 µM; in experiment [5] (setting [8]) it was over 5 µM; in experiment [6] (Homo sapiens, A-375, 72 hours), over 5 µM.

Take `COc1ccc2c(-c3ccc(-c4cc(OC)c(OC)c(OC)c4)o3)cc(=O)oc2c1` [COUM-23, 4-(5-(3,4,5-trimethoxybenzene)furan-2-yl)-7-methoxyl-coumarin]: the IC50 in experiment [1] (Homo sapiens, MCF7, 72 hours) is over 5 µM; in experiment [2] (Homo sapiens), over 5 µM; in experiment [3] (setting [7]), over 5 µM; in experiment [4] (Homo sapiens, HepG2, 72 hours) it was over 5 µM; in experiment [5] (setting [8]), over 5 µM; in experiment [6] (Homo sapiens, A-375, 72 hours) it was over 5 µM.

The IC50 is the concentration at which inhibition is half-maximal.

(Values after US10544134B2, “4-substituted coumarin derivatives and preparation methods and uses thereof” (SI CHUAN UNIVERSITY, priority 2015, dated 2020).)
